Values of other authors in patent US10076496B2, “Engineering of polymer-stabilized nanoparticles for drugs with Log P values below 6 by controlled antisolvent precipitation” (THE CHINESE UNIVERSITY OF HONG KONG, priority 2011, dated 2018).

CC(=O)O[C@H]1C(=O)[C@@]2(C)[C@H]([C@H](OC(=O)c3ccccc3)[C@]3(O)C[C@H](OC(=O)[C@H](O)[C@@H](NC(=O)c4ccccc4)c4ccccc4)C(C)=C1C3(C)C)[C@]1(OC(C)=O)CO[C@@H]1C[C@@H]2O [paclitaxel]
Log P: 7.38
